Patent US7138525B2, “N-substituted-2-oxodihydropyridine derivatives” (Banyu Pharmaceutical Co., Ltd., priority 2002, dated 2006)
Read-outs that look alike come from different tables or passages of the source.

Assays:
human NPY Y5 receptor = molecular target: T1, human NPY Y5 receptor (Homo sapiens, UniProt Q15761); experiment: NPY binding inhibition test ([125I]peptideYY binding to membranes of NPY Y5 receptor expressing cells); conditions: 25° C., 2 hours, membrane of NPY Y5 receptor expressing cells, read-out: IC50 against specific peptideYY binding
T1 construct: expressed in transfected cells; host or cells: COS-7, CHO and LM(tk-) cells (membrane preparation)
T1 sequence (Q15761 1-445): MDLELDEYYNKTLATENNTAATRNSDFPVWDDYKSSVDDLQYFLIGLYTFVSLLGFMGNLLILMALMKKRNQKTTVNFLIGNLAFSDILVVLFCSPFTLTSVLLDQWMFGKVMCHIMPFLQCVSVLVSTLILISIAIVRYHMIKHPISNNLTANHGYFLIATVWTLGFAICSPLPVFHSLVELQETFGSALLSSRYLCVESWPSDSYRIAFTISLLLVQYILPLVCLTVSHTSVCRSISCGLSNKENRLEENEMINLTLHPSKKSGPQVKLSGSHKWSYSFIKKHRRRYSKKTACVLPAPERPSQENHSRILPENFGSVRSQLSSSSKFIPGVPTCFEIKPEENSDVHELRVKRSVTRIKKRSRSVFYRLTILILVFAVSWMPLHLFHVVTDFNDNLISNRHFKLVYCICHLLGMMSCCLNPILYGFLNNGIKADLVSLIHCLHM
Description: cDNA sequence encoding human NPY Y5 receptor (c.f. International patent publication number WO96/16542) was cloned into expression vectors pcDNA3, pRc/RSV (made by Invitrogen Inc.) and pCI-neo (made by Promega Inc.). The expression vectors thus obtained were transfected to host cells COS-7, CHO and LM(tk−) (American Type Culture Collection) by cationic lipid method (Proceedings of the National Academy of Sciences of the United States of America, vol. 84: p. 7413(1987)) to give NPY Y5 receptor expression cells.
A membrane sample prepared from the cells which expressed NPY Y5 receptor was incubated together with a test compound and [^125I]peptideYY (made by NEN) (20,000 cpm) in an assay buffer (25 mM Tris buffer, pH7.4, containing 10 mM magnesium chloride, 1 mM phenylmethylsulfonyl fluoride, 0.1% bacitracin and 0.5% bovine serum albumin) at 25° C. for 2 hours, then filtered through a glass filter GF/C and washed with 5 mM Tris buffer (pH7.4) containing 0.3% BSA. The radio activity of the cake on the glass filter was measured. Non-specific binding was measured in the presence of 1 μM peptide YY, and a 50% Inhibitory Concentration (IC50) of the test compound against specific peptideYY binding was determined (Endocrinology, vol. 131: p. 2090(1992)).

[1] = Pharmacokinetics test (plasma concentration by LC/MS/MS); type: in vivo; conditions: rat, male SD rats, overnight fasting, oral or intravenous administration
Method: A test compound was orally or intravenously administered to male SD rats (7–10 weeks old, 200–400 g) under the overnight fasting condition. About 100 μL of blood was collected from the tail vein by heparinized capillary at designated time. The blood was centrifuged (4° C., 6,000 r.p.m., 10 minutes) to obtain the plasma. 3-fold amount of ethanol containing an internal standard was added to plasma. The mixture was stirred, allowed to stand at −20° C. for 20 minutes, and then centrifuged (4° C., 10,000 r.p.m., 10 minutes). The supernatant was analyzed by LC/MS/MS, and the concentration of the test compound in the plasma was measured using a relative calibration curve.

[2] = Brain/cerebrospinal fluid transport test; type: in vivo; conditions: male SD rats, 2 hours after oral administration (10 mg/kg); for concentration at 2 h: rat
Method: A test compound was orally or intravenously administered to male SD rats (7–10 weeks old, 200–400 g), and whole blood was collected from the abdominal aorta using a heparin-treated syringe under the ether anesthesia at designated time. Then, the head skin was cut out, and a dental 30 G needle was inserted between the cervical vertebrae, and it was further inserted into the cavum subarachnoideale. After 50 to 100 μL cerebrospinal fluid had been collected by a 1 ml-syringe through a tube connected to dental 30 G needle, the brain was extracted. The blood sample was centrifuged (4° C., 6,000 r.p.m., 10 minutes) to obtain the plasma. 3-fold amount of ethanol containing an internal standard was added, and stirred. The brain sample was homogenized after addition of 2 ml water, an aliquot of the homogenate was taken and 3-fold amount of ethanol containing an internal standard was added, and stirred. The cerebrospinal fluid was stirred after adding 3-fold amount of ethanol containing an internal standard. These samples were allowed to stand at −20° C. for 20 minutes, and then centrifuged (4° C., 12,000 g, 10 minutes). The supernatant was analyzed by LC/MS/MS, and the concentration of the test compound in the plasma, brain, and cerebrospinal fluid were measured by the method using a relative calibration curve.

Row | Compound | IC50 (human NPY Y5 receptor) | other results
1 | CCn1cc(C2=NC(c3ccc(F)cc3)(c3ccc(C(F)F)nc3)[C@H](C)N2)cc(F)c1=O (single isomer, unassigned) [Example 1-45] | 2.8 nM | 
2 | CCn1cc(C2=N[C@@](c3ccc(F)cc3)(c3ccc(F)nc3)[C@H](C)N2)cc(F)c1=O [Example 1-25, 1-ethyl-3-fluoro-5-[(4S,5S)-4-(4-fluorophenyl)-4-(6-fluoro-3-pyridyl)-5-methyl-2-imidazolin-2-yl]-2-pyridone] | 2.9 nM | 
3 | C[C@@H]1NC(c2ccc(=O)n(C(F)F)c2)=NC1(c1ccc(Cl)cc1)c1ccnc(F)c1 (single isomer, unassigned) [Example 1-21] | 2.7 nM | 
4 | C[C@@H]1NC(c2ccc(=O)n(C(F)F)c2)=NC1(c1ccc(F)cc1)c1ccc(C(F)F)nc1 (single isomer, unassigned) [Example 1-42] | 2.8 nM | 
5 | CCn1cc(C2=NC(c3ccc(Cl)cc3)(c3ccnc(F)c3)[C@H](C)N2)ccc1=O (single isomer, unassigned) [Example 1-23] | 2.8 nM | 
6 | C[C@@H]1NC(c2ccc(=O)n(C(F)F)c2)=NC1(c1ccc(F)cc1)c1ccc(C(F)(F)F)nc1 (single isomer, unassigned) [Example 1-7] | 2.7 nM | bioavailability [1]: 94%; half-life [1]: 8.5 h; concentration in the brain [2]: 2.48 nmol/g; concentration at 2 h ([2]; cerebrospinal fluid, read-out: concentration in the cerebrospinal fluid): 150 nM; concentration at 2 h ([2]; plasma, read-out: concentration in the plasma): 3170 nM
7 | CCn1cc(C2=NC(c3ccc(F)cc3)(c3ccc(C(F)(F)F)nc3)[C@H](C)N2)cc(F)c1=O (single isomer, unassigned) [Example 1-29] | 2.9 nM | 
8 | CCc1cc(C2=N[C@@](c3ccc(F)cc3)(c3ccc(F)nc3)[C@H](C)N2)cn(C(F)F)c1=O [Example 1-70, 1-difluoromethyl-3-ethyl-5-[(4S,5S)-4-(4-fluorophenyl)-4-(6-fluoro-3-pyridyl)-5-methyl-2-imidazolin-2-yl]-2-pyridone] | 2.9 nM | 

Stronger by IC50 (human NPY Y5 receptor), values ahead:

Row | IC50 (human NPY Y5 receptor) | Compound | other results
9 | 2.3 nM | CCn1cc(C2=NC(c3ccc(F)cc3)(c3ccc(C(F)(F)F)nc3)[C@H](C)N2)cc(Cl)c1=O (single isomer, unassigned) [Example 1-11] | 
10 | 2.5 nM | COn1cc(C2=N[C@](c3ccc(F)cc3)(c3ccc(C(F)(F)F)nc3)[C@H](C)N2)ccc1=O [Example 1-53, 5-[(4R,5S)-4-(4-fluorophenyl)-5-methyl-4-(6-trifluoromethyl-3-pyridyl)-2-imidazolin-2-yl]-1-methoxy-2-pyridone] | 
11 | 2.6 nM | CCc1cc(C2=N[C@@](c3ccc(F)cc3)(c3ccc(F)nc3)[C@H](C)N2)cn(C)c1=O [Example 1-39, 3-ethyl-5-[(4S,5S)-4-(4-fluorophenyl)-4-(6-fluoro-3-pyridyl)-5-methyl-2-imidazolin-2-yl]-1-methyl-2-pyridone] | 
12 | 1.5 nM | CCCn1cc(C2=NC(c3ccc(F)cc3)(c3ccc(C(F)(F)F)nc3)[C@H](C)N2)ccc1=O (single isomer, unassigned) [Example 1-9] | 
13 | 2.1 nM | CCn1cc(C2=NC(c3ccc(F)cc3)(c3ccc(C(F)(F)F)nc3)[C@H](C)N2)ccc1=O (single isomer, unassigned) [Example 1-8] | 
